The NIST ThermoML archive (doi:10.1016/j.jct.2014.06.023)
“And” between values parts separate entries of the source, which are not always exact repeats. Identical values can stand only once. Numbers after ± are expanded uncertainties.

Conditions: Buoyancy - hydrostatic balance with magnetic suspension - one sinker

Work on CC [ethane] yielded a mass density (225.41 K, 310.68 kPa, Gas) of 5.2843 ± 0.012 kg/m3, a mass density (225.41 K, 1642.2 kPa, Liquid) of 489.85 ± 0.11 kg/m3 and a mass density (225.42 K, 212.66 kPa, Gas) of 3.5454 ± 0.011 kg/m3. For the same compound, the mass density (225.42 K, 1086.8 kPa, Liquid) was 488.834 ± 0.11 kg/m3, the mass density (225.42 K, 2133.2 kPa, Liquid) was 490.717 ± 0.11 kg/m3 and the mass density (225.43 K, 709.57 kPa, Liquid) was 488.151 ± 0.11 kg/m3. For the same compound, the mass density (225.44 K, 403.34 kPa, Gas) was 6.9981 ± 0.012 kg/m3, the mass density (225.47 K, 499.44 kPa, Gas) was 8.8558 ± 0.013 kg/m3 and the mass density (230.34 K, 306.85 kPa, Gas) was 5.0853 ± 0.011 kg/m3. It also gave a mass density (230.34 K, 1666.7 kPa, Liquid) of 482.366 ± 0.11 kg/m3, a mass density (230.34 K, 2111.2 kPa, Liquid) of 483.236 ± 0.11 kg/m3 and a mass density (230.35 K, 197.35 kPa, Gas) of 3.2054 ± 0.011 kg/m3. The mass density (230.35 K, 391.01 kPa, Gas) was 6.5852 ± 0.012 kg/m3, the mass density (230.35 K, 493.22 kPa, Gas) was 8.4852 ± 0.012 kg/m3 and the mass density (230.35 K, 2447.9 kPa, Liquid) was 483.853 ± 0.11 kg/m3. The mass density (230.36 K, 615.49 kPa, Gas) was 10.8842 ± 0.012 kg/m3, the mass density (230.36 K, 1671.6 kPa, Liquid) was 482.356 ± 0.11 kg/m3 and the mass density (230.37 K, 1281 kPa, Liquid) was 481.577 ± 0.11 kg/m3. It also gave a mass density (230.38 K, 886.51 kPa, Liquid) of 480.769 ± 0.11 kg/m3, a mass density (235 K, 391.54 kPa, Gas) of 6.4356 ± 0.011 kg/m3 and a mass density (235.01 K, 305.16 kPa, Gas) of 4.9382 ± 0.011 kg/m3. For the same compound, the mass density (235.01 K, 499.46 kPa, Gas) was 8.3818 ± 0.012 kg/m3, the mass density (235.01 K, 592.34 kPa, Gas) was 10.1286 ± 0.013 kg/m3 and the mass density (235.02 K, 197.5 kPa, Gas) was 3.137 ± 0.011 kg/m3. It also gave a mass density (235.03 K, 694.56 kPa, Gas) of 12.1431 ± 0.013 kg/m3, a mass density (239.99 K, 717.05 kPa, Gas) of 12.2167 ± 0.013 kg/m3 and a mass density (240.01 K, 954.18 kPa, Gas) of 17.1448 ± 0.014 kg/m3. For the same compound, the mass density (240.04 K, 105.82 kPa, Gas) was 1.619 ± 0.01 kg/m3, the mass density (240.04 K, 323.6 kPa, Gas) was 5.1239 ± 0.011 kg/m3 and the mass density (240.04 K, 502.79 kPa, Gas) was 8.2138 ± 0.012 kg/m3. For the same compound, the mass density (240.04 K, 1755.7 kPa, Liquid) was 466.891 ± 0.11 kg/m3, the mass density (240.05 K, 2196.3 kPa, Liquid) was 467.899 ± 0.11 kg/m3 and the mass density (240.06 K, 1092.2 kPa, Liquid) was 465.243 ± 0.11 kg/m3. The mass density (240.06 K, 1457.2 kPa, Liquid) was 466.142 ± 0.11 kg/m3, the mass density (240.08 K, 2591.9 kPa, Liquid) was 468.767 ± 0.11 kg/m3 and the mass density (240.09 K, 2936.2 kPa, Liquid) was 469.524 ± 0.11 kg/m3. The mass density (244.91 K, 880.77 kPa, Gas) was 15.0548 ± 0.013 kg/m3, the mass density (244.91 K, 1111.6 kPa, Gas) was 20.0182 ± 0.014 kg/m3 and the mass density (244.92 K, 628.26 kPa, Gas) was 10.2258 ± 0.012 kg/m3. For the same compound, the mass density (244.92 K, 877.28 kPa, Gas) was 14.9812 ± 0.013 kg/m3, the mass density (244.92 K, 1123.2 kPa, Liquid) was 456.739 ± 0.11 kg/m3 and the mass density (244.92 K, 1225 kPa, Liquid) was 457.081 ± 0.11 kg/m3. It also gave a mass density (244.92 K, 1442.7 kPa, Liquid) of 457.624 ± 0.11 kg/m3, a mass density (244.93 K, 138.73 kPa, Gas) of 2.0893 ± 0.01 kg/m3 and a mass density (244.93 K, 350.79 kPa, Gas) of 5.4481 ± 0.011 kg/m3. The mass density (244.93 K, 350.8 kPa, Gas) was 5.4496 ± 0.011 kg/m3, the mass density (244.93 K, 904.97 kPa, Gas) was 15.5558 ± 0.013 kg/m3 and the mass density (244.93 K, 1659 kPa, Liquid) was 458.187 ± 0.11 kg/m3. For the same compound, the mass density (244.93 K, 1659.6 kPa, Liquid) was 458.185 ± 0.11 kg/m3, the mass density (244.95 K, 1111.4 kPa, Gas) was 20.0202 ± 0.014 kg/m3 and the mass density (249.79 K, 863.82 kPa, Gas) was 14.2661 ± 0.013 kg/m3. It also gave a mass density (249.8 K, 863.8 kPa, Gas) of 14.2677 ± 0.013 kg/m3, a mass density (249.8 K, 1281.6 kPa, Gas) of 23.1579 ± 0.017 kg/m3 and a mass density (249.81 K, 360.58 kPa, Gas) of 5.4802 ± 0.011 kg/m3. The mass density (249.81 K, 633.6 kPa, Gas) was 10.0488 ± 0.012 kg/m3, the mass density (249.81 K, 1067.5 kPa, Gas) was 18.3574 ± 0.015 kg/m3 and 18.3577 ± 0.015 kg/m3 and the mass density (249.81 K, 1281.3 kPa, Gas) was 23.1411 ± 0.017 kg/m3. For the same compound, the mass density (249.82 K, 147.6 kPa, Gas) was 2.1773 ± 0.0099 kg/m3, the mass density (249.84 K, 2352.9 kPa, Liquid) was 451.272 ± 0.1 kg/m3 and the mass density (249.85 K, 2081.5 kPa, Liquid) was 450.462 ± 0.1 kg/m3. It also gave a mass density (249.86 K, 2510.3 kPa, Liquid) of 451.694 ± 0.1 kg/m3, a mass density (249.86 K, 2510.4 kPa, Liquid) of 451.694 ± 0.1 kg/m3 and a mass density (249.87 K, 2510.9 kPa, Liquid) of 451.681 ± 0.1 kg/m3. The mass density (249.9 K, 1805.5 kPa, Liquid) was 449.546 ± 0.1 kg/m3, the mass density (249.93 K, 1301 kPa, Liquid) was 447.948 ± 0.1 kg/m3 and the mass density (249.93 K, 1354.2 kPa, Liquid) was 448.104 ± 0.1 kg/m3. For the same compound, the mass density (249.93 K, 1591.6 kPa, Liquid) was 448.847 ± 0.1 kg/m3, the mass density (254.69 K, 1692.1 kPa, Liquid) was 439.901 ± 0.1 kg/m3 and the mass density (254.69 K, 2265.9 kPa, Liquid) was 441.863 ± 0.1 kg/m3. For the same compound, the mass density (254.7 K, 2492.4 kPa, Liquid) was 442.576 ± 0.1 kg/m3, the mass density (254.7 K, 2493.3 kPa, Liquid) was 442.588 ± 0.1 kg/m3 and the mass density (254.72 K, 114.93 kPa, Gas) was 1.6547 ± 0.0096 kg/m3. The mass density (254.72 K, 2013.5 kPa, Liquid) was 440.937 ± 0.1 kg/m3, the mass density (254.73 K, 225.89 kPa, Gas) was 3.2988 ± 0.0098 kg/m3 and the mass density (254.74 K, 1474.7 kPa, Gas) was 26.843 ± 0.016 kg/m3. It also gave a mass density (254.75 K, 3109.9 kPa, Liquid) of 444.464 ± 0.1 kg/m3, a mass density (254.76 K, 634.94 kPa, Gas) of 9.817 ± 0.011 kg/m3 and a mass density (254.76 K, 825.19 kPa, Gas) of 13.1528 ± 0.012 kg/m3. The mass density (254.76 K, 1040.1 kPa, Gas) was 17.2189 ± 0.013 kg/m3, the mass density (254.76 K, 1280.4 kPa, Gas) was 22.2529 ± 0.015 kg/m3 and the mass density (254.76 K, 1280.5 kPa, Gas) was 22.2533 ± 0.015 kg/m3. For the same compound, the mass density (254.76 K, 2860.9 kPa, Liquid) was 443.666 ± 0.1 kg/m3, the mass density (254.77 K, 423.98 kPa, Gas) was 6.354 ± 0.01 kg/m3 and the mass density (254.78 K, 3457.8 kPa, Liquid) was 445.504 ± 0.1 kg/m3. The mass density (254.81 K, 2648.7 kPa, Liquid) was 442.883 ± 0.1 kg/m3, the mass density (259.62 K, 933.39 kPa, Gas) was 14.7341 ± 0.012 kg/m3 and the mass density (259.62 K, 1174.9 kPa, Gas) was 19.3302 ± 0.013 kg/m3. It also gave a mass density (259.62 K, 1700.9 kPa, Liquid) of 429.637 ± 0.1 kg/m3, a mass density (259.62 K, 2698.9 kPa, Liquid) of 433.539 ± 0.1 kg/m3 and a mass density (259.63 K, 152.52 kPa, Gas) of 2.1615 ± 0.0095 kg/m3. It also gave a mass density (259.63 K, 358.5 kPa, Gas) of 5.211 ± 0.01 kg/m3, a mass density (259.63 K, 550.88 kPa, Gas) of 8.2159 ± 0.011 kg/m3 and a mass density (259.63 K, 726.92 kPa, Gas) of 11.1161 ± 0.011 kg/m3. For the same compound, the mass density (259.63 K, 1351.5 kPa, Gas) was 23.0156 ± 0.015 kg/m3, the mass density (259.63 K, 1351.6 kPa, Gas) was 23.0046 ± 0.015 kg/m3 and the mass density (259.63 K, 1548.6 kPa, Gas) was 27.5129 ± 0.016 kg/m3. It also gave a mass density (259.63 K, 2097.3 kPa, Liquid) of 431.21 ± 0.1 kg/m3, a mass density (259.63 K, 2412.9 kPa, Liquid) of 432.441 ± 0.1 kg/m3 and a mass density (259.63 K, 3076.2 kPa, Liquid) of 434.902 ± 0.1 kg/m3. For the same compound, the mass density (265.02 K, 505.8 kPa, Gas) was 7.3166 ± 0.01 kg/m3, the mass density (265.06 K, 116.65 kPa, Gas) was 1.6114 ± 0.0092 kg/m3 and the mass density (265.06 K, 279.98 kPa, Gas) was 3.9405 ± 0.0095 kg/m3. It also gave a mass density (265.06 K, 3532.6 kPa, Liquid) of 425.483 ± 0.1 kg/m3, a mass density (265.07 K, 1811.5 kPa, Gas) of 32.6652 ± 0.017 kg/m3 and a mass density (265.07 K, 2278.6 kPa, Liquid) of 419.942 ± 0.099 kg/m3. It also gave a mass density (265.07 K, 2962.8 kPa, Liquid) of 423.046 ± 0.099 kg/m3, a mass density (265.08 K, 1404.5 kPa, Gas) of 23.2391 ± 0.014 kg/m3 and a mass density (265.08 K, 1612.3 kPa, Gas) of 27.8016 ± 0.016 kg/m3. For the same compound, the mass density (265.08 K, 2073 kPa, Liquid) was 418.96 ± 0.099 kg/m3, the mass density (265.08 K, 2322.7 kPa, Liquid) was 420.14 ± 0.099 kg/m3 and the mass density (265.08 K, 2963.1 kPa, Liquid) was 423.044 ± 0.099 kg/m3. For the same compound, the mass density (265.08 K, 3081.3 kPa, Liquid) was 423.536 ± 0.099 kg/m3, the mass density (265.08 K, 3090.5 kPa, Liquid) was 423.579 ± 0.099 kg/m3 and the mass density (265.09 K, 2565.3 kPa, Liquid) was 421.145 ± 0.099 kg/m3. The mass density (265.09 K, 3539.3 kPa, Liquid) was 425.459 ± 0.1 kg/m3, the mass density (265.1 K, 816.83 kPa, Gas) was 12.3046 ± 0.011 kg/m3 and the mass density (265.1 K, 1004.4 kPa, Gas) was 15.548 ± 0.012 kg/m3. For the same compound, the mass density (265.1 K, 1199.4 kPa, Gas) was 19.1462 ± 0.013 kg/m3 and the mass density (265.1 K, 2730.8 kPa, Liquid) was 421.962 ± 0.099 kg/m3.
